# Experimental data published in PubChem BioAssay (NCI).
#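 In this assay, cells in 96-well plates receive the compound at five concentrations for 48 hours. Endpoints are linearly interpolated between the surrounding concentrations. TGI marks complete inhibition of growth.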
# Key:
# Test in all cases: growth of human tumour cells (NCI), 48 h
# [1] = tested on: 786-0 renal
# [2] = tested on: A498 renal
# [3] = tested on: A549 NSCLC
# [4] = tested on: ACHN renal
# [5] = tested on: BT-549 breast
# [6] = tested on: CAKI-1 renal
# [7] = tested on: CCRF-CEM leukemia
# [8] = tested on: COLO 205 colon
# [9] = tested on: DU-145 prostate
# [10] = tested on: EKVX NSCLC
# [11] = tested on: HCC-2998 colon
# [12] = tested on: HCT-116 colon
# [13] = tested on: HCT-15 colon
# [14] = tested on: HOP-62 NSCLC
# [15] = tested on: HOP-92 NSCLC
# [16] = tested on: HS 578T breast
# [17] = tested on: HT29 colon
# [18] = tested on: IGROV1 ovarian
# [19] = tested on: K-562 leukemia
# [20] = tested on: KM12 colon
# [21] = tested on: LOX IMVI melanoma
# [22] = tested on: M14 melanoma
# [23] = tested on: MALME-3M melanoma
# [24] = tested on: MCF7 breast
# [25] = tested on: MDA-MB-231 breast
# [26] = tested on: MDA-MB-435
# [27] = tested on: MDA-N
# [28] = tested on: MOLT-4 leukemia
# [29] = tested on: NCI-H226 lung
# [30] = tested on: NCI-H23 lung
# [31] = tested on: NCI-H460 lung
# [32] = tested on: NCI/ADR-RES ovarian
# [33] = tested on: OVCAR-3 ovarian
# [34] = tested on: OVCAR-4 ovarian
# [35] = tested on: OVCAR-5 ovarian
# [36] = tested on: OVCAR-8 ovarian
# [37] = tested on: PC-3 prostate
# [38] = tested on: SF-295 CNS
# [39] = tested on: SF-539 CNS
# [40] = tested on: SK-MEL-2 melanoma
# [41] = tested on: SK-MEL-28 melanoma
# [42] = tested on: SK-MEL-5 melanoma
# [43] = tested on: SK-OV-3 ovarian
# [44] = tested on: SN12C renal
# [45] = tested on: SNB-19 CNS
# [46] = tested on: SNB-75 CNS
# [47] = tested on: SR leukemia
# [48] = tested on: SW-620 colon
# [49] = tested on: T-47D breast
# [50] = tested on: TK-10 renal
# [51] = tested on: U251 CNS
# [52] = tested on: UACC-257 melanoma
# [53] = tested on: UACC-62 melanoma
# [54] = tested on: UO-31 renal
# [55] = tested on: HL-60(TB) leukemia
# [56] = tested on: NCI-H522 lung
# [57] = tested on: RPMI-8226 leukemia
# [58] = tested on: RXF 393 renal
structure (smiles),measurement,setting,value
S=c1nc(Cc2ccc(Cl)cc2)[nH][nH]1,TGI,[1],> 100 µM
same,TGI,[2],> 100 µM
same,TGI,[3],> 100 µM
same,TGI,[4],> 100 µM
same,TGI,[5],> 100 µM
same,TGI,[6],> 100 µM
same,TGI,[7],> 100 µM
same,TGI,[8],> 100 µM
same,TGI,[9],> 100 µM
same,TGI,[10],> 100 µM
same,TGI,[11],> 100 µM
same,TGI,[12],> 100 µM
same,TGI,[13],> 100 µM
same,TGI,[14],> 100 µM
same,TGI,[15],85.7 µM
same,TGI,[16],> 100 µM
same,TGI,[17],> 100 µM
same,TGI,[18],> 100 µM
same,TGI,[19],> 100 µM
same,TGI,[20],> 100 µM
same,TGI,[21],> 100 µM
same,TGI,[22],> 100 µM
same,TGI,[23],> 100 µM
same,TGI,[24],> 100 µM
same,TGI,[25],> 100 µM
same,TGI,[26],> 100 µM
same,TGI,[27],> 100 µM
same,TGI,[28],> 100 µM
same,TGI,[29],> 100 µM
same,TGI,[30],> 100 µM
same,TGI,[31],> 100 µM
same,TGI,[32],> 100 µM
same,TGI,[33],> 100 µM
same,TGI,[34],> 100 µM
same,TGI,[35],> 100 µM
same,TGI,[36],> 100 µM
same,TGI,[37],> 100 µM
same,TGI,[38],> 100 µM
same,TGI,[39],> 100 µM
same,TGI,[40],> 100 µM
same,TGI,[41],> 100 µM
same,TGI,[42],> 100 µM
same,TGI,[43],> 100 µM
same,TGI,[44],> 100 µM
same,TGI,[45],> 100 µM
same,TGI,[46],> 100 µM
same,TGI,[47],> 100 µM
same,TGI,[48],> 100 µM
same,TGI,[49],99.6 µM
same,TGI,[50],> 100 µM
same,TGI,[51],> 100 µM
same,TGI,[52],> 100 µM
same,TGI,[53],> 100 µM
same,TGI,[54],> 100 µM
COc1ccc(/C=C2\C(=O)N(C)C(=O)c3cc(OC)c(OC)cc32)cc1OC,TGI,[1],> 100 µM
same,TGI,[2],> 100 µM
same,TGI,[3],> 100 µM
same,TGI,[4],> 100 µM
same,TGI,[5],55.6 µM
same,TGI,[6],> 100 µM
same,TGI,[7],69.7 µM
same,TGI,[8],47.9 µM
same,TGI,[9],> 100 µM
same,TGI,[10],27.9 µM
same,TGI,[11],> 100 µM
same,TGI,[12],> 100 µM
same,TGI,[13],> 100 µM
same,TGI,[55],40.1 µM
same,TGI,[14],90 µM
same,TGI,[15],75.5 µM
same,TGI,[17],34.2 µM
same,TGI,[18],> 100 µM
same,TGI,[19],> 100 µM
same,TGI,[21],34.1 µM
same,TGI,[22],> 100 µM
same,TGI,[24],> 100 µM
same,TGI,[25],> 100 µM
same,TGI,[26],> 100 µM
same,TGI,[27],75.2 µM
same,TGI,[28],> 100 µM
same,TGI,[29],34.7 µM
same,TGI,[30],> 100 µM
same,TGI,[31],> 100 µM
same,TGI,[56],36.4 µM
same,TGI,[33],> 100 µM
same,TGI,[34],> 100 µM
same,TGI,[35],> 100 µM
same,TGI,[37],> 100 µM
same,TGI,[57],66.9 µM
same,TGI,[58],51.6 µM
same,TGI,[38],78.7 µM
same,TGI,[39],76.2 µM
same,TGI,[40],> 100 µM
same,TGI,[42],89.8 µM
same,TGI,[44],> 100 µM
same,TGI,[45],> 100 µM
same,TGI,[47],55.5 µM
same,TGI,[48],> 100 µM
same,TGI,[49],> 100 µM
same,TGI,[50],> 100 µM
same,TGI,[51],> 100 µM
same,TGI,[52],> 100 µM
same,TGI,[53],94 µM
same,TGI,[54],> 100 µM
